Reference: US8323695B2, “Method for stabilizing phenylephrine” (McNeil-PPC, Inc., priority 2007, dated 2012)
Structures can show the parent of a compound that is named as a salt.

What was measured:
[1] = Formation of phenylephrine-maleate adducts as a function of pH; type: physicochemical; settings: combined with chlorpheniramine maleate
From the text: Phenylephrine may be unstable in the presence of active ingredients which are the soluble salts of maleic acid. Phenylephrine-Maleate adducts form when phenylephrine hydrochloride is combined with chlorpheniramine maleate in solution and in solid dosage forms. This is due to the presence of phenylephrine with maleic acid. It was discovered that a pH below 6.0 yields low levels of one type of phenylephrine-maleate adduct (degradant #1) and it was also discovered that a pH above 4.5 yields low levels of a second type of phenylephrine-maleate adduct (degradant #2).

[2] = Stability of phenylephrine in solid formulations after spray drying an acidic solution; type: physicochemical
From the text: Phenylephrine is known to experience physical and chemical degradation. Degradation of phenylephrine may be caused by a variety of factors including, but not limited to, the presence of oxygen, moisture, reducible sugars, bases, high temperatures, etc. […] Degradation of phenylephrine may be noticed by a change in color, e.g. changing from a whitish color to a darker, blackish color. Additionally, phenylephrine may degrade chemically as recorded by degradation peaks during analysis, such as an HPLC analysis. It is desirable to prevent, reduce or minimize the degradation of phenylephrine. An embodiment of the present invention provides a stable pharmaceutical composition having phenylephrine in a therapeutically effective amount wherein the phenylephrine has been spray dried. An additional embodiment of the present invention provides a stable composition of phenylephrine in a therapeutically effective amount wherein the phenylephrine has been layered or sprayed onto a substrate.

CNC[C@H](O)c1cccc(O)c1 [phenylephrine hydrochloride]
levels of second type of phenylephrine-maleate adduct (degradant #2) ([1]; pH above 4.5): low levels | levels of phenylephrine-maleate adduct (degradant #1) ([1]; pH below 6.0): low levels

CNC[C@H](O)c1cccc(O)c1 [phenylephrine]
stability of phenylephrine in solid formulations [2]: increases the stability
